Tested on: 966289-007-R4-J1-PDC complex spheroid viability
Assay: Anticancer human tumor 966289-007-R4-J1-PDC patient-derived pancreatic adenocarcinoma cell line growth inhibition [RAS]
Details: for IC50: curve of first compound; for viability, T/C: stronger effect = lower value
Summary of the method: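 Agents were tested in combination matrices in half-log decrements from a top concentration at or near clinical Cmax (10 microM if undetermined). Targets were multi-cell spheroids of tumour lines plus HUVEC and MSC stromal cells.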

[1] = second compound 0.000949 µM, first compound 0.000949 µM
[2] = second compound 0.000949 µM, first compound 0.003 µM
[3] = second compound 0.000949 µM, first compound 0.00949 µM
[4] = second compound 0.000949 µM, first compound 0.03 µM
[5] = second compound 0.000949 µM, first compound 0.0949 µM
[6] = second compound 0.000949 µM, first compound 0.3 µM
[7] = second compound 0.003 µM, first compound 0.000949 µM
[8] = second compound 0.003 µM, first compound 0.003 µM
[9] = second compound 0.003 µM, first compound 0.00949 µM
[10] = second compound 0.003 µM, first compound 0.03 µM
[11] = second compound 0.003 µM, first compound 0.0949 µM
[12] = second compound 0.003 µM, first compound 0.3 µM
[13] = second compound 0.00949 µM, first compound 0.000949 µM
[14] = second compound 0.00949 µM, first compound 0.003 µM
[15] = second compound 0.00949 µM, first compound 0.00949 µM
[16] = second compound 0.00949 µM, first compound 0.03 µM
[17] = second compound 0.00949 µM, first compound 0.0949 µM
[18] = second compound 0.00949 µM, first compound 0.3 µM
[19] = second compound 0.03 µM, first compound 0.000949 µM
[20] = second compound 0.03 µM, first compound 0.003 µM
[21] = second compound 0.03 µM, first compound 0.00949 µM
[22] = second compound 0.03 µM, first compound 0.03 µM
[23] = second compound 0.03 µM, first compound 0.0949 µM
[24] = second compound 0.03 µM, first compound 0.3 µM
[25] = second compound 0.0949 µM, first compound 0.000949 µM
[26] = second compound 0.0949 µM, first compound 0.003 µM
[27] = second compound 0.0949 µM, first compound 0.00949 µM
[28] = second compound 0.0949 µM, first compound 0.03 µM
[29] = second compound 0.0949 µM, first compound 0.0949 µM
[30] = second compound 0.0949 µM, first compound 0.3 µM
[31] = second compound 0.3 µM, first compound 0.000949 µM
[32] = second compound 0.3 µM, first compound 0.003 µM
[33] = second compound 0.3 µM, first compound 0.00949 µM
[34] = second compound 0.3 µM, first compound 0.03 µM
[35] = second compound 0.3 µM, first compound 0.0949 µM
[36] = second compound 0.3 µM, first compound 0.3 µM
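Note: spheroids exposed to agents for one week before readout.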
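Throughout, for viability, T/C: percent viability relative to DMSO vehicle control wells as 100%.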

C=CC(=O)N1CCN(c2nc(OCC3CCCN3C)nc3c(F)c(-c4nc(N)cc(C)c4C(F)(F)F)c(Cl)cc23)C(C)C1 (stereo unspecified) + CCn1c(-c2cccnc2C(C)OC)c2c3cc(ccc31)N1CCOC(CC(NC(=O)C(C(C)C)N(C)C(=O)C3(F)CCN(C(=O)C#CC(C)(C)N(C)C)CC3)C(=O)N3CCCC(N3)C(=O)OCC(C)(C)C2)C1
IC50 (second compound 0.000949 µM): > 1000 nM | IC50 (second compound 0.003 µM): > 1000 nM | IC50 (second compound 0.00949 µM): > 1000 nM | IC50 (second compound 0.03 µM): > 1000 nM | IC50 (second compound 0.0949 µM): > 1000 nM | IC50 (second compound 0.3 µM): > 1000 nM | viability, T/C (second compound 0.000949 µM, first compound 0.00316 µM): 94.7% | viability, T/C (second compound 0.000949 µM, first compound 0.01 µM): 74.5% | viability, T/C (second compound 0.000949 µM, first compound 0.0316 µM): 93.2% | viability, T/C (second compound 0.000949 µM, first compound 0.1 µM): 51% | viability, T/C (second compound 0.000949 µM, first compound 0.316 µM): 67.2% | viability, T/C (second compound 0.000949 µM, first compound 1 µM): 76.7% | viability, T/C (second compound 0.003 µM, first compound 0.00316 µM): 105% | viability, T/C (second compound 0.003 µM, first compound 0.01 µM): 66.2% | viability, T/C (second compound 0.003 µM, first compound 0.0316 µM): 90% | viability, T/C (second compound 0.003 µM, first compound 0.1 µM): 50.3% | viability, T/C (second compound 0.003 µM, first compound 0.316 µM): 85.4% | viability, T/C (second compound 0.003 µM, first compound 1 µM): 69.7% | viability, T/C (second compound 0.00949 µM, first compound 0.00316 µM): 56.1% | viability, T/C (second compound 0.00949 µM, first compound 0.01 µM): 81.2% | viability, T/C (second compound 0.00949 µM, first compound 0.0316 µM): 94.1% | viability, T/C (second compound 0.00949 µM, first compound 0.1 µM): 58.1% | viability, T/C (second compound 0.00949 µM, first compound 0.316 µM): 87.2% | viability, T/C (second compound 0.00949 µM, first compound 1 µM): 84% | viability, T/C (second compound 0.03 µM, first compound 0.00316 µM): 52% | viability, T/C (second compound 0.03 µM, first compound 0.01 µM): 65.9% | viability, T/C (second compound 0.03 µM, first compound 0.0316 µM): 79.7% | viability, T/C (second compound 0.03 µM, first compound 0.1 µM): 59.8% | viability, T/C (second compound 0.03 µM, first compound 0.316 µM): 102% | viability, T/C (second compound 0.03 µM, first compound 1 µM): 85.3% | viability, T/C (second compound 0.0949 µM, first compound 0.00316 µM): 61.3% | viability, T/C (second compound 0.0949 µM, first compound 0.01 µM): 76.5% | viability, T/C (second compound 0.0949 µM, first compound 0.0316 µM): 95% | viability, T/C (second compound 0.0949 µM, first compound 0.1 µM): 93.5% | viability, T/C (second compound 0.0949 µM, first compound 0.316 µM): 91% | viability, T/C (second compound 0.0949 µM, first compound 1 µM): 93.4% | viability, T/C (second compound 0.3 µM, first compound 0.00316 µM): 87.8% | viability, T/C (second compound 0.3 µM, first compound 0.01 µM): 90.8% | viability, T/C (second compound 0.3 µM, first compound 0.0316 µM): 106% | viability, T/C (second compound 0.3 µM, first compound 0.1 µM): 92.2% | viability, T/C (second compound 0.3 µM, first compound 0.316 µM): 127% | viability, T/C (second compound 0.3 µM, first compound 1 µM): 91.6%

CC1(C)CCC(Nc2ncc(C(F)(F)F)c(-c3c[nH]c4c(P(C)(C)=O)c(C#N)ccc34)n2)CN1 (stereo unspecified) + CCn1c(-c2cccnc2C(C)OC)c2c3cc(ccc31)N1CCOC(CC(NC(=O)C(C(C)C)N(C)C(=O)C3(F)CCN(C(=O)C#CC(C)(C)N(C)C)CC3)C(=O)N3CCCC(N3)C(=O)OCC(C)(C)C2)C1
IC50 (second compound 0.000949 µM): 4.98 nM | IC50 (second compound 0.003 µM): 5.32 nM | IC50 (second compound 0.00949 µM): 4.93 nM | IC50 (second compound 0.03 µM): 3.82 nM | IC50 (second compound 0.0949 µM): 4.06 nM | IC50 (second compound 0.3 µM): 2.89 nM | viability, T/C [1]: 136% | viability, T/C [2]: 75.5% | viability, T/C [3]: 17.6% | viability, T/C [4]: 7.64% | viability, T/C [5]: 5.45% | viability, T/C [6]: 7.38% | viability, T/C [7]: 90.5% | viability, T/C [8]: 77.4% | viability, T/C [9]: 22.3% | viability, T/C [10]: 7.6% | viability, T/C [11]: 5.79% | viability, T/C [12]: 7.11% | viability, T/C [13]: 83.3% | viability, T/C [14]: 75.1% | viability, T/C [15]: 16.9% | viability, T/C [16]: 8.28% | viability, T/C [17]: 5.11% | viability, T/C [18]: 5.09% | viability, T/C [19]: 72% | viability, T/C [20]: 59.6% | viability, T/C [21]: 13.6% | viability, T/C [22]: 5.23% | viability, T/C [23]: 4.63% | viability, T/C [24]: 3.91% | viability, T/C [25]: 71.8% | viability, T/C [26]: 65.2% | viability, T/C [27]: 7.56% | viability, T/C [28]: 3.47% | viability, T/C [29]: 3.17% | viability, T/C [30]: 3.37% | viability, T/C [31]: 62.6% | viability, T/C [32]: 49.6% | viability, T/C [33]: 6.28% | viability, T/C [34]: 2.91% | viability, T/C [35]: 2.13% | viability, T/C [36]: 1.99%

CCc1c2c(nc3ccc(O)cc13)-c1cc3c(c(=O)n1C2)COC(=O)[C@]3(O)CC + CCn1c(-c2cccnc2C(C)OC)c2c3cc(ccc31)N1CCOC(CC(NC(=O)C(C(C)C)N(C)C(=O)C3(F)CCN(C(=O)C#CC(C)(C)N(C)C)CC3)C(=O)N3CCCC(N3)C(=O)OCC(C)(C)C2)C1
IC50 (second compound 0.000949 µM): 1.76 nM | IC50 (second compound 0.003 µM): 1.73 nM | IC50 (second compound 0.00949 µM): 1.62 nM | IC50 (second compound 0.03 µM): 1.18 nM | IC50 (second compound 0.0949 µM): 0.96 nM | IC50 (second compound 0.3 µM): < 0.949 nM | viability, T/C [1]: 103% | viability, T/C [2]: 4.09% | viability, T/C [3]: 0.96% | viability, T/C [4]: 0.65% | viability, T/C [5]: 0.49% | viability, T/C [6]: 0.69% | viability, T/C [7]: 99.8% | viability, T/C [8]: 4.15% | viability, T/C [9]: 0.79% | viability, T/C [10]: 0.63% | viability, T/C [11]: 0.64% | viability, T/C [12]: 0.67% | viability, T/C [13]: 89.8% | viability, T/C [14]: 4.69% | viability, T/C [15]: 1.12% | viability, T/C [16]: 0.52% | viability, T/C [17]: 0.51% | viability, T/C [18]: 0.56% | viability, T/C [19]: 60.8% | viability, T/C [20]: 3.34% | viability, T/C [21]: 1.17% | viability, T/C [22]: 0.76% | viability, T/C [23]: 0.58% | viability, T/C [24]: 0.79% | viability, T/C [25]: 50.5% | viability, T/C [26]: 2.92% | viability, T/C [27]: 0.55% | viability, T/C [28]: 0.56% | viability, T/C [29]: 0.56% | viability, T/C [30]: 0.53% | viability, T/C [31]: 18.4% | viability, T/C [32]: 1.07% | viability, T/C [33]: 0.76% | viability, T/C [34]: 0.59% | viability, T/C [35]: 0.68% | viability, T/C [36]: 0.5%
